From US11986471B2, “Compounds and methods of use” (Tango Therapeutics, Inc., priority 2018, dated 2024) come the findings set out here.

What is called IC50 is the concentration needed to halve the response being measured.

SMILES strings stand for the structures.

In one experiment the test system is HAP1 MTAP-intact. The experiment in a line: SDMA in-cell western assay, HAP1 MTAP-intact cell line. The experiment is classed as cell-based. The following applies: Homo sapiens. Put shortly:
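HAP1 isogenic pair: endogenous MTAP vs MTAP-null. Readout SDMA by in-cell western; IC50 per line. Ratio ≥3 fold = MTAP-selective.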

In experiment [1] the target is T1, PRMT5 (Homo sapiens, UniProt O14744).
T1 construct: purchased Viva (custom protein)
T1 sequence (O14744 whole entry): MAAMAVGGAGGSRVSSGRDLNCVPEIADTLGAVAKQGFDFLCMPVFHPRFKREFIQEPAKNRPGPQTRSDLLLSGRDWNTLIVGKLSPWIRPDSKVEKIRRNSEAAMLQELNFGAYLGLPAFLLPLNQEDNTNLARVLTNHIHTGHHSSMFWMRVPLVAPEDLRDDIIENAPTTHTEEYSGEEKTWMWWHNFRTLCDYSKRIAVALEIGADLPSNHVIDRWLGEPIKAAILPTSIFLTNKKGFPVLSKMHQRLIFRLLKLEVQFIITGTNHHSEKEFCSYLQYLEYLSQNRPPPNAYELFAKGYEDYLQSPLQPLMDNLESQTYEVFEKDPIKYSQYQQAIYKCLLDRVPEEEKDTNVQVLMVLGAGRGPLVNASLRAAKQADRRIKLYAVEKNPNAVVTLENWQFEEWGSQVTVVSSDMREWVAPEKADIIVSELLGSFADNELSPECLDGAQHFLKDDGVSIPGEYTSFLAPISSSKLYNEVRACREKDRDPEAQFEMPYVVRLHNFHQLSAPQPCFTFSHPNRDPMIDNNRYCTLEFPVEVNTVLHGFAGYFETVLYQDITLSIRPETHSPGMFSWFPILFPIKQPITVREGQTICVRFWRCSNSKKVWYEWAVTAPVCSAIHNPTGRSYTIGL
T1 sequence (Q9BQA1 whole entry partner): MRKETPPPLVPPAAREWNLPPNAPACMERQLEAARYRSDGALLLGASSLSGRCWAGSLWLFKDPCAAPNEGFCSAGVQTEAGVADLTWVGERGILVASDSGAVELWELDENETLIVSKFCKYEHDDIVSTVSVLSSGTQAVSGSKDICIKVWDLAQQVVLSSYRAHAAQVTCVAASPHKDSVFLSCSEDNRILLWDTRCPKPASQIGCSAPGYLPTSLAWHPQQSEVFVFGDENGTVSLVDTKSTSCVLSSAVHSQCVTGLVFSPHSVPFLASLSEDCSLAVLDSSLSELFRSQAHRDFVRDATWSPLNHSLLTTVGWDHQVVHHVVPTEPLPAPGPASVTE
The experiment in a line: PRMT5 IC50 assay with no cofactor. The experiment is classed as biochemical. Put shortly:
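Values reflect IC50 (μM) on human PRMT5 under three cofactor states. Selectivity is derived as the quotient of SAM-state Ki over MTA-state Ki, with each Ki obtained from its IC50.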

For the next experiment, the system named is HAP1 MTAP-deleted. The experiment in a line: SDMA in-cell western assay, HAP1 MTAP-deleted cell line. It is filed as cell-based. The following applies: for IC50: Homo sapiens, HAP1 MTAP-deleted cell line; for MTAP Intact/Deleted Ratio: IC50 ratio HAP1 MTAP-intact / HAP1 MTAP-deleted. In outline: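 IC50 from SDMA in-cell western; HAP1 line lacking MTAP (null), paired isogenically with MTAP-intact HAP1 expressing endogenous MTAP.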

For experiment [2], the target named is T1, PRMT5. Put plainly: PRMT5 IC50 assay in the presence of MTA as cofactor. The experiment is classed as biochemical. The following applies: for IC50: PRMT5, MTA as cofactor. Put shortly: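 MTA-dependent versus SAM-dependent inhibition of human PRMT5 was assessed by IC50; conversion factors of 13.5 and 1.5 gave the corresponding Ki.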
Experiment [3] has as its target T1, PRMT5. Put plainly: PRMT5 IC50 assay in the presence of SAM as cofactor. It is filed as biochemical. In outline:
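Each compound is tested on PRMT5 in the presence of SAM, of MTA, and without any cofactor. Ki values are then back-calculated using fixed factors of 1.5 (SAM) and 13.5 (MTA), and the two Ki values are compared as a ratio.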

Setting [4] is: ratio between Ki in the presence of SAM and Ki in the presence of MTA.
Setting [5] is: ratio between the Ki in the presence of SAM and the Ki in the presence of MTA.

Consider `CC(=O)N1CCC(Nc2cc(C(=O)NC[C@H](O)CN3CCc4cc(OCc5ocnc5C)ccc4C3)ncn2)CC1` [Compound 219, (S)-6-((1-acetylpiperidin-4-yl)amino)-N-(2-hydroxy-3-(6-((4-methyloxazol-5-yl)methoxy)-3,4-dihydroisoquinolin-2(1H)-yl)propyl)pyrimidine-4-carboxamide], for which the IC50 in the experiment with HAP1 MTAP-intact is 1000 to 10000 nM; at PRMT5 [1] (read-out: No Co-factor IC50) it was at least 5000 nM; in the experiment with HAP1 MTAP-deleted, under 1000 nM; at PRMT5 [2] it was 50 to 500 nM; on PRMT5 [3] it was 50 to 500 nM. Also, in the experiment on HAP1 MTAP-deleted, the “MTAP Intact/Deleted Ratio” value was “B* (an IC50 ratio greater than or equal to 3 fold but lower than 10 fold between the IC50 in the HAP1 MTAP-intact cell line and the HAP1 MTAP-deleted cell line)”. For the same molecule, the “SAM/MTA Ratio” value at PRMT5 [2] (setting [4]) was “A (a Ki ratio greater than or equal to 10 fold between the Ki in the presence of SAM and the Ki in the presence of MTA)”.
`CC(=O)N1CCC(Nc2cc(C(=O)NC[C@H](O)CN3CCc4nc(OCc5ocnc5C)ccc4C3)ncn2)CC1` [Compound 491, 6-[(1-acetyl-4-piperidyl)amino]-N-[(2S)-2-hydroxy-3-[2-[(4-methyloxazol-5-yl)methoxy]-7,8-dihydro-5H-1,6-naphthyridin-6-yl]propyl]pyrimidine-4-carboxamide]: the 50% inhibitory concentration (IC50) with HAP1 MTAP-intact is at least 10000 nM; on PRMT5 [1], at least 5000 nM; in the experiment on HAP1 MTAP-deleted, 1000 to 10000 nM; on PRMT5 [2] it was 50 to 500 nM; at PRMT5 [3], 50 to 500 nM. Besides, the “MTAP Intact/Deleted Ratio” value with HAP1 MTAP-deleted was “C* (an IC50 ratio of less than 3 fold between the IC50 in the HAP1 MTAP-intact cell line and the HAP1 MTAP-deleted cell line)”. The “SAM/MTA Ratio” value at PRMT5 [2] (setting [5]) is “A (a Ki ratio greater than or equal to 10 fold between the Ki in the presence of SAM and the Ki in the presence of MTA)”.
Consider `Cc1ncoc1COc1cc(F)c2c(c1)CCN(C[C@@H](O)CNC(=O)c1ccnc(NC3CCC3)c1)C2` [Compound 506, 2-(cyclobutylamino)-N-[(2S)-3-[8-fluoro-6-[(4-methyloxazol-5-yl)methoxy]-3,4-dihydro-1H-isoquinolin-2-yl]-2-hydroxy-propyl]pyridine-4-carboxamide], for which the IC50 was at least 10000 nM in the experiment on HAP1 MTAP-intact; at least 5000 nM against PRMT5 [1]; 1000 to 10000 nM in the experiment with HAP1 MTAP-deleted; 50 to 500 nM at PRMT5 [2]; 50 to 500 nM at PRMT5 [3]. Moreover, in the experiment with HAP1 MTAP-deleted, the “MTAP Intact/Deleted Ratio” value is “B* (an IC50 ratio greater than or equal to 3 fold but lower than 10 fold between the IC50 in the HAP1 MTAP-intact cell line and the HAP1 MTAP-deleted cell line)”. On PRMT5 [2] (setting [5]), the “SAM/MTA Ratio” value is “A (a Ki ratio greater than or equal to 10 fold between the Ki in the presence of SAM and the Ki in the presence of MTA)”.
Consider `CCN(C)c1cc(C(=O)NC[C@H](O)CN2CCc3cc(OCc4cnco4)ccc3C2)cc(NC2CCC2)n1` [Compound 438, (S)-2-(cyclobutylamino)-6-(ethyl(methyl)amino)-N-(2-hydroxy-3-(6-(oxazol-5-ylmethoxy)-3,4-dihydroisoquinolin-2(1H)-yl)propyl)isonicotinamide], for which the IC50 in the experiment with HAP1 MTAP-intact was 1000 to 10000 nM; at PRMT5 [1] it was at least 5000 nM; with HAP1 MTAP-deleted, 1000 to 10000 nM; at PRMT5 [2], 50 to 500 nM; on PRMT5 [3], 500 to 5000 nM. The “MTAP Intact/Deleted Ratio” value with HAP1 MTAP-deleted is “C* (an IC50 ratio of less than 3 fold between the IC50 in the HAP1 MTAP-intact cell line and the HAP1 MTAP-deleted cell line)”. Also, the “SAM/MTA Ratio” value on PRMT5 [2] (setting [5]) was “A (a Ki ratio greater than or equal to 10 fold between the Ki in the presence of SAM and the Ki in the presence of MTA)”.
For the molecule `Cc1ncoc1COc1ccc2c(c1)CCN(C[C@@H](O)CNC(=O)c1cc(NC3CCC3)nc(N3CCN(C(=O)C4CC4)CC3)c1)C2` [Compound 455, 2-(cyclobutylamino)-6-(4-cvclopropanecarbonylpiperazin-1-yl)-N-[(2S)-2-hydroxy-3-{6-[(4-methyl-1,3-oxazol-5-yl)methoxy]-1,2,3,4-tetrahydroisoquinolin-2-yl}propyl]pyridine-4-carboxamide], the IC50 in the experiment with HAP1 MTAP-intact was under 1000 nM; on PRMT5 [1], 50 to 500 nM; with HAP1 MTAP-deleted, under 1000 nM; on PRMT5 [2] it was 50 to 500 nM; at PRMT5 [3] it was 50 to 500 nM. Besides, the “MTAP Intact/Deleted Ratio” value in the experiment on HAP1 MTAP-deleted was “B* (an IC50 ratio greater than or equal to 3 fold but lower than 10 fold between the IC50 in the HAP1 MTAP-intact cell line and the HAP1 MTAP-deleted cell line)”. The “SAM/MTA Ratio” value at PRMT5 [2] (setting [5]) was “A (a Ki ratio greater than or equal to 10 fold between the Ki in the presence of SAM and the Ki in the presence of MTA)”.
For the molecule `Cc1c(OCc2cnco2)ccc2c1CCN(C[C@@H](O)CNC(=O)c1ccnc(NC3CN(C(=O)C4CC4)C3)c1)C2` [Compound 588, (S)-2-((1-(cyclopropanecarbonyl)azetidin-3-yl)amino)-N-(2-hydroxy-3-(5-methyl-6-(oxazol-5-ylmethoxy)-3,4-dihydroisoquinolin-2(1H)-yl)propyl)isonicotinamide], the IC50 with HAP1 MTAP-intact was at least 10000 nM; against PRMT5 [1], 500 to 5000 nM; in the experiment on HAP1 MTAP-deleted, 1000 to 10000 nM; at PRMT5 [2], 50 to 500 nM; on PRMT5 [3], 50 to 500 nM. Further, the “MTAP Intact/Deleted Ratio” value in the experiment with HAP1 MTAP-deleted was “C* (an IC50 ratio of less than 3 fold between the IC50 in the HAP1 MTAP-intact cell line and the HAP1 MTAP-deleted cell line)”. Moreover, the “SAM/MTA Ratio” value at PRMT5 [2] (setting [5]) is “A (a Ki ratio greater than or equal to 10 fold between the Ki in the presence of SAM and the Ki in the presence of MTA)”.
Consider `CN1CCN(c2cc(C(=O)NC[C@H](O)CN3CCc4cc(OCc5cnco5)ccc4C3)cc(NC3CCC3)n2)CC1` [Compound 448], for which the IC50 is under 1000 nM in the experiment on HAP1 MTAP-intact; 500 to 5000 nM against PRMT5 [1]; under 1000 nM with HAP1 MTAP-deleted; 50 to 500 nM on PRMT5 [2]; 50 to 500 nM on PRMT5 [3]. In the experiment with HAP1 MTAP-deleted, the “MTAP Intact/Deleted Ratio” value was “C* (an IC50 ratio of less than 3 fold between the IC50 in the HAP1 MTAP-intact cell line and the HAP1 MTAP-deleted cell line)”. Besides, the “SAM/MTA Ratio” value at PRMT5 [2] (setting [5]) was “A (a Ki ratio greater than or equal to 10 fold between the Ki in the presence of SAM and the Ki in the presence of MTA)”.
Consider `O=C(NC[C@H](O)CN1CCc2c(ccc(OCc3cnco3)c2Cl)C1)c1cncc(NC2CCOC2)c1` (stereo partly drawn) [Compound 359, N—((S)-3-(5-chloro-6-(oxazol-5-ylmethoxy)-3N-dihydroisoquinolin-2(1H)-yl)-2-hydroxypropyl)-5-((tetrahydrofuran-3-yl)amino)nicotinamide], for which the IC50 in the experiment with HAP1 MTAP-intact is at least 10000 nM; at PRMT5 [1] (read-out: No Co-factor IC50) it was at least 5000 nM; in the experiment on HAP1 MTAP-deleted, 1000 to 10000 nM; on PRMT5 [2], 500 to 5000 nM; at PRMT5 [3] it was 500 to 5000 nM. Moreover, the “MTAP Intact/Deleted Ratio” value in the experiment on HAP1 MTAP-deleted was “C* (an IC50 ratio of less than 3 fold between the IC50 in the HAP1 MTAP-intact cell line and the HAP1 MTAP-deleted cell line)”. Further, the “SAM/MTA Ratio” value at PRMT5 [2] (setting [4]) was “A (a Ki ratio greater than or equal to 10 fold between the Ki in the presence of SAM and the Ki in the presence of MTA)”.
With `CCC(=O)N1CCN(c2cc(C(=O)NC[C@H](O)CN3CCc4cc(OCc5ocnc5C)ccc4C3)cc(NC3CCC3)n2)CC1` [Compound 389, 2-(cyclobutylamino)-N-[(2S)-2-hydroxy-3-{6-[(4-methyl-1,3-oxazol-5-yl)methoxy]-1,2,3,4-tetrahydroisoquinolin-2-yl}propyl]-6-(4-propanoylpiperazin-1-yl)pyridine-4-carboxamide], the half-inhibitory concentration (IC50) was under 1000 nM in the experiment on HAP1 MTAP-intact; 500 to 5000 nM at PRMT5 [1] (read-out: No Co-factor IC50); under 1000 nM in the experiment with HAP1 MTAP-deleted; 50 to 500 nM at PRMT5 [2]; 50 to 500 nM on PRMT5 [3]. Besides, the “MTAP Intact/Deleted Ratio” value in the experiment on HAP1 MTAP-deleted is “B* (an IC50 ratio greater than or equal to 3 fold but lower than 10 fold between the IC50 in the HAP1 MTAP-intact cell line and the HAP1 MTAP-deleted cell line)”. Further, the “SAM/MTA Ratio” value on PRMT5 [2] (setting [4]) is “A (a Ki ratio greater than or equal to 10 fold between the Ki in the presence of SAM and the Ki in the presence of MTA)”.
For the molecule `CC(=O)N1CCC(Nc2ccnc(C(=O)NC[C@H](O)CN3CCc4c(ccc(OCc5cnco5)c4C)C3)c2)CC1` [Compound 559], the IC50 is at least 10000 nM in the experiment on HAP1 MTAP-intact; 500 to 5000 nM at PRMT5 [1]; 1000 to 10000 nM in the experiment on HAP1 MTAP-deleted; 50 to 500 nM on PRMT5 [2]; 50 to 500 nM at PRMT5 [3]. In addition, the “MTAP Intact/Deleted Ratio” value in the experiment with HAP1 MTAP-deleted was “C* (an IC50 ratio of less than 3 fold between the IC50 in the HAP1 MTAP-intact cell line and the HAP1 MTAP-deleted cell line)”. Also, the “SAM/MTA Ratio” value on PRMT5 [2] (setting [5]) is “A (a Ki ratio greater than or equal to 10 fold between the Ki in the presence of SAM and the Ki in the presence of MTA)”.
For `CC(C)C(=O)N1CCN(c2cc(C(=O)NC[C@H](O)CN3CCc4cc(OCc5cnco5)ccc4C3)cc(NC3CCC3)n2)CC1` [Compound 481, (S)-2-(cyclobutylamino)-N-(2-hydroxy-3-(6-(oxazol-5-ylmethoxy)-3,4-dihydroisoquinolin-2(1H)-yl)propyl)-6-(4-isobutyrylpiperazin-1-yl)isonicotinamide], the IC50 with HAP1 MTAP-intact is under 1000 nM; on PRMT5 [1], 500 to 5000 nM; in the experiment with HAP1 MTAP-deleted, under 1000 nM; on PRMT5 [2], 50 to 500 nM; at PRMT5 [3], 50 to 500 nM. The “MTAP Intact/Deleted Ratio” value with HAP1 MTAP-deleted was “C* (an IC50 ratio of less than 3 fold between the IC50 in the HAP1 MTAP-intact cell line and the HAP1 MTAP-deleted cell line)”. Moreover, the “SAM/MTA Ratio” value at PRMT5 [2] (setting [5]) was “A (a Ki ratio greater than or equal to 10 fold between the Ki in the presence of SAM and the Ki in the presence of MTA)”.
